“Also recorded” adds a separate entry of the source. Read-outs that look alike come from different tables or passages of the source. Where a SMILES comes first, the peptide text is derived from it. The star is where a group is joined. Cbz = O=C(OCc1ccccc1)*; CH2F = FC*
How the values were obtained:
lateral line hair cells = test: Cavitation (acoustic trauma)-induced lateral line hair cell damage in larval zebrafish, hair cell survival assessment; assay type: in vivo; conditions: for protection from cavitation-induced hair cell damage (hair cell survival score vs DMSO control): blinded mini-screen of select redox library compounds, FIG. 12B
Procedure: At 5 days post-fertilization (dpf), fish were fed a light dusting of GEMMA micro 75 while in petri dishes. All noise exposure experiments were conducted at 6 dpf. Larval zebrafish were placed into wells A2-A5 and D2-D5 of a modified 24-well plate (3 fish per well) containing fish water and suspended atop 22 cm of water within the container 2 (stainless-steel canister) with the bottom of the 1 cm of the well plate 5 submerged (as generally shown in FIG. 1). While the well plate is disclosed often with the bottom of the plate being submerged, it is also to be understood that the entire well plate may be submerged without departing from the scope of the invention. Fish were exposed to cavitation for periods ranging from 20 to 120 minutes.
Immediately following cavitation fish were transferred to a 6-well plate 5 (6 fish per well) and kept in the fish facility on a 14 h light/10 h dark cycle for up to 5 post-exposure days. Each post-exposure morning (9-10 am) 50% of fish water was exchanged with fresh fish water and fish were lightly dusted with GEMMA food. Each post-exposure day evening (5-6 pm) fish were transferred to a fresh 6-well plate with completely fresh fish water.
Survival of lateral line hair cells was assessed by vital dye labeling in live fish and direct hair cells counts in live and fixed animals. The vital dye 2-(4-(dimethylamino)styryl)-N-ethylpyridinium iodide (DASPEI) is a marker of mitochondria membrane potential and stains lateral line hair cells. Fish were incubated in 0.005% DASPEI for 15 min, then rinsed twice with fish water and anesthetized with 0.001% MS-222. Using a Leica M165FC fluorescence dissection scope, 10 anterior neuromasts (IO1, IO2, IO3, IO4, M2, MI1, MI2, O2, SO1, and SO2) per fish were assessed based on fluorescent intensity. An intensity score of 2 signifies bright neuromast fluorescence, an intermediate score of 1 represents dim DASPEI labeling, while a 0 neuromast score equates to no neuromast fluorescence at a given neuromast's stereotyped position. The scores from 10 neuromasts per fish were summed such that each fish receives a score between 0 (no neuromast fluorescence) and 20 (full complement of hair cells in all 10 neuromasts).
All inhibitors (to test roles of cell death (including apoptosis, pyroptosis and necroptosis) and inflammation, were added to 6-well plates immediately after cavitation-exposed fish were removed from the device. Inhibitors were refreshed during the same intervals as fish water (twice daily) until the end of the desired exposure window. To test the role of protein synthesis, fish were pulse treated immediately after acoustic trauma for 4 h with the protein synthesis inhibitor cycloheximide (C7698; Sigma Aldrich). In separate experiments, acoustic trauma-exposed fish were continuously treated with either the pan caspase inhibitor Z-VAD-FMK ([…]; Sigma Aldrich) or the antioxidant D-methionine (F7111; UBPBio) to assess the contribution of caspase activation and ROS overproduction, respectively, in the acoustically stimulated lateral line. A small blinded screen was also conducted of select compounds from a larger redox library (BML-2835-0100; Enzo Life Sciences). Compounds chosen had either known protective effects in mammalian models of NIHL (as proof-of concept) or had not been previously tested against NIHL (to identify new protective molecules).

cochlear hair cells [1] = conditions: guinea pigs; cited from earlier work
cochlear hair cells [2] = conditions: mice; cited from earlier work
[3] = cited from earlier work
hair cells = conditions: intracochlear perfusion, guinea pigs; cited from earlier work

## CSCC[C@@H](N)C(=O)O [D-methionine]
Lateral line hair cells; 100 μM, FIG. 12A
  protection from cavitation-induced hair cell damage (hair cell survival): protected lateral line hair cells from cavitation damage
Lateral line hair cells; 500 μM, FIG. 12A
  protection from cavitation-induced hair cell damage (hair cell survival): protected lateral line hair cells from cavitation damage
Lateral line hair cells; 72 hour treatment, concentration not stated at place, FIG. 12A
  protection from cavitation-induced hair cell damage (hair cell survival): protects lateral line hair cells from cavitation
Lateral line hair cells; 72 hour treatment, concentration not stated at place, FIG. 12A, listed as D-Methionine
  protection from cavitation-induced hair cell damage (hair cell survival): robustly protects lateral line hair cells from cavitation
Cochlear hair cells [1]
  protection of cochlear hair cells from acoustic trauma: protects cochlear hair cells
Cochlear hair cells [2]
  protection of cochlear hair cells from acoustic trauma: protects cochlear hair cells

## CC(=O)N[C@@H](CS)C(=O)O [N-acetylcysteine]
[3]
  prevention of NIHL, clinical trial outcome: failed to meet clinical endpoints

## COC(=O)C[C@H](NC(=O)[C@H](C)NC(=O)[C@@H](NC(=O)OCc1ccccc1)C(C)C)C(=O)CF [Z-VAD, Z-VAD-FMK] (Cbz-Val-Ala-Asp(OMe)-CH2F)
Lateral line hair cells; 1 μM, treatment for entire 72-hour post-exposure window, FIG. 11B
  protection from cavitation-induced hair cell damage (hair cell survival): significantly reduced cavitation-induced hair cell damage
Lateral line hair cells; 72-h treatment starting immediately after acoustic stimulation, concentration not stated, FIG. 11B
  protection from cavitation-induced hair cell damage (hair cell survival): reduced cavitation-induced lateral line hair cell damage; also recorded: robustly protects hair cells from damage
Hair cells
  hair cell loss following blast noise trauma: reduces hair cell loss

## O=c1cc(-c2ccccc2)oc2cc(O)c(O)c(O)c12 [baicalein]
Lateral line hair cells
  protection from cavitation-induced hair cell damage (hair cell survival score vs DMSO control): significantly protected lateral line hair cells from cavitation-induced hair cell damage

## CCCCS(=N)(=O)CCC(N)C(=O)O (centres unmarked) [buthionine sulfoximine]
Lateral line hair cells
  protection from cavitation-induced hair cell damage (hair cell survival score vs DMSO control): did not confer protection

## C[C@@H]1C[C@@H]([C@H](O)CC2CC(=O)NC(=O)C2)C(=O)[C@@H](C)C1 [cycloheximide]
Lateral line hair cells; 4 h pulse treatment immediately after acoustic stimulation, assessed 72 h post-exposure, FIG. 11A
  protection from cavitation-induced hair cell damage (hair cell survival): prevented hair cell loss; also recorded: reduces hair cell damage
Lateral line hair cells; 4 h pulse treatment immediately after acoustic stimulation, assessed 72 h post-exposure, FIG. 11A, listed as Cycloheximide
  protection from cavitation-induced hair cell damage (hair cell survival): protected lateral line hair cells from cavitation in a dose-dependent manner

## CC1=C(C)C(=O)C(CC[C@](C)(O)CCC[C@H](C)CCC[C@H](C)CCCC(C)C)=C(C)C1=O [d-α-tocopherylquinone]
Lateral line hair cells
  protection from cavitation-induced hair cell damage (hair cell survival score vs DMSO control): significantly protected lateral line hair cells from cavitation-induced hair cell damage

## CCOC(=O)/C=C/c1ccc(O)c(OC)c1 [ferulic acid ethylester]
Lateral line hair cells
  protection from cavitation-induced hair cell damage (hair cell survival score vs DMSO control): significantly protected lateral line hair cells from cavitation-induced hair cell damage

## N[C@@H](CCC(=O)N[C@@H](CS)C(=O)NCC(=O)O)C(=O)O [glutathione]
Lateral line hair cells
  protection from cavitation-induced hair cell damage (hair cell survival score vs DMSO control): significantly protected lateral line hair cells from cavitation-induced hair cell damage
